Measurements from publication PMC4240912, “Multifaceted interplay between lipophilicity, protein interaction and luminescence parameters of non-intercalative ruthenium(II) polypyridyl complexes controlling cellular imaging and cytotoxic properties” (Journal of Biological Inorganic Chemistry, 2014).
Like-named read-outs stand apart in the source and are kept apart here.

Columns and labels:
[1] = test system: 4T1 breast cancer cell line; test: Alamar Blue cell viability, 4T1; format: cell-based; conditions: 4T1, 24 h incubation
Experimental: 4T1 breast cancer cell line was cultured in RPMI-1640 (Gibco Invitrogen) with 10 % fetal bovine serum (FBS, the bovine serum albumin is a major component), 1 % penicillin and streptomycin and 0.2 % fungizone. Cells were routinely cultured at 37 °C in a humidified incubator in 5 % CO2 atmosphere. Cell viability was measured using Alamar Blue assay. Cells were seeded on 96-well plate with density of 10^4 cells per cm^2 and cultured for 24 h in medium with or without 2 % serum. Then cells were incubated with various concentrations of ruthenium compounds for 24 h in the dark. All used ruthenium complexes were freshly diluted in DMSO and then added to the appropriate medium to obtain the applied concentrations. The final DMSO concentration was kept constant at 0.05 % (v/v). Next cells were washed with PBS and incubated in AlamarBlue solution (21 times diluted in PBS) for 3 h. Alamar Blue test is based on the reduction of blue and non-fluorescent subtract (resazurin) to a pink and highly fluorescent product (resorufin) by the alive cells. Extract mechanism of the reduction is still unknown, but it is postulated that reduction occurs by mitochondrial or cytoplasmic enzymes, such as NADH dehydrogenase or diaphorase. It is still not known whether this process occurs intracellularly, at the plasma membrane surface or just in the medium as a chemical reaction. The cell viability was quantified at 605 nm using 560 nm excitation light (VICTOR 3V multilabel plate readers, PerkinElmer). Experiments were performed in triplicates and each experiment was performed at least three times to get the mean values ± standard deviation. The viability was calculated with regard to the untreated cells control. The IC50 values were determined using Hill equation (Origin 9.0): y=y0+y100-y0c^H/IC50^H+c^H

[2] = test system: FVB mouse lung microvascular endothelial cells (MLuMEC FVB); test: Alamar Blue cell viability, MLuMEC; format: cell-based; conditions: 24 h
Experimental: (§1) FVB mouse lung microvascular endothelial cells (MLuMEC FVB) and murine endothelial cells isolated from aorta-gonad-mesonephros (AGM) region of 10.5 dpc embryos (MAgEC 10.5) were cultured in OptiMEM with Glutamax-I (Gibco Invitrogen) supplemented with 2% fetal bovine serum (FBS), 0.4% gentamycin and 0.2% fungizone. […]
(§2) 10% FBS, 1% peniciline and streptomycin and 0.2% fungizone. Cells were routinely cultured at 37 °C in a humidified incubator in 5% CO2 atmosphere.
(§3) Cell viability was measured using Alamar Blue assay. Cells were seeded on 96 wells plate with density of 1 × 10^4 cells per cm2 and cultured for 1 day. Then cells were incubated with various concentrations of compounds in medium with or without 2% FBS for 24 and 48 h under normoxic and hypoxic conditions in the darkness. Next cells were washed with PBS and incubated in Alamar Blue solution for 3 h. The cell viability was quantified at 605 nm using 560 nm excitation light (VICTOR 3V multilabel plate reader PerkinElmer or Tecan Infinite200 Reader). Experiments were performed in triplicates and each experiment was performed at least three times to get the mean values ± standard derivation. The viability was calculated with regard to the untreated cells control. The IC50 values were determined using Hill equation (Origin 9.0). […]

[3] = test system: murine endothelial cells isolated from aorta-gonad-mesonephros (AGM) region of 10.5 dpc embryos (MAgEC 10.5); test: Alamar Blue cell viability, MAgEC 10.5; format: cell-based; conditions: MAgEC 10.5, 24 h
Experimental: as §1, §2, §3

[4] = Luminescence quantum yield and lifetime in aqueous solution; format: physicochemical
Experimental: UV–Vis absorption spectra were recorded on a Perkin Elmer Lambda 35 spectrophotometer. Luminescence measurements were performed on a spectrofluorimeter Perkin Elmer LS55. The spectra were recorded at the room temperature in aqueous solution containing small amount of DMSO (<0.008 % v/v). The emission spectra were recorded between 470 and 860 nm upon excitation at 463 nm. The average of three scans was subjected to smoothing. For determination of the quantum yield of luminescence (Φ), aqueous solutions of [Ru(bpy)3]^2+ with a small amount of DMSO (<0.008 % v/v) were used as standards (Φ = 0.028 [14] and 0.042 [20] for air-equilibrium and deoxygenated conditions, respectively). The spectra were recorded for ruthenium complexes at the concentration less than 0.05 absorbance unit at the excitation wavelength. Values were calculated according to the following equation [21]: Φ=Φref×Aref/A×I/Iref×n^2/nref2, where I is the integrated intensity of luminescence, A is the optical density, and n is the refractive index, ref refers to the values for reference. The mean value from minimum three independent experiments was calculated.
The luminescence lifetime measurements were performed with a single photon counting technique using Fluorolog-3, Horiba Jobin Yvon. The excitation wavelength was set at 464 nm (NanoLed Diodes) and the average lifetime of luminescence was monitored at 621 nm. Luminescence decays were collected with 1,000 counts in the peak. The instrument response functions were measured using a light scattering solution of Ludox (colloidal silica, Sigma-Aldrich). Experiments were conducted at room temperature. The DAS6 software (HORIBA Scientific) was used for deconvolution of the obtained decays and for calculation of the lifetime values. The quality of the fit was judged by the χ ^2 parameter (the goodness of fit evaluation). One-exponential fit was determined to be an optimal description of the obtained results for the ruthenium compounds.

4T1 cells = test: Ruthenium uptake measured by ICP-MS; format: cell-based; conditions: 4T1, [Ru-complex] = 2 µM, 24 h
Experimental: Cells were seeded on a 6-well plate with a density of 3 × 10^5 cells per cm^2. 24 h after the incubation ruthenium complexes were added at 2 µM concentration. Cells were incubated in medium without serum for 24 h. After incubation cells were washed twice with PBS, detached by trypsin (trypsin/EDTA from Gibco) treatment, diluted in PBS and counted. Cells were digested in concentrated nitric acid overnight at room temperature and then diluted with water. The ruthenium content of the sample was determined by the inductively coupled plasma mass spectrometry (ICP-MS). Results were calculated as ruthenium concentration per cell (assuming the average volume of cell was 1.7 pL [31]).

[5] = aqueous solution, ref [11], cited from earlier work
[6] = air-equilibrated conditions, excitation 463 nm

Question: Which results are given for `Cc1ccnc(-c2cc(C)ccn2)c1.[Ru+2].c1ccc(-c2ccnc3c2ccc2c(-c4ccccc4)ccnc23)cc1.c1ccc(-c2ccnc3c2ccc2c(-c4ccccc4)ccnc23)cc1` [[Ru(dip)2(CH3bpy-CH3)]^2+]?
Answer: IC50 ([1]; medium with serum (2 %)): 9.32 ± 1.37 µM; IC50 ([1]; medium without serum): 4.9 ± 0.3 µM; IC50 ([2]; with serum (2%)): 8.32 ± 0.06 µM; IC50 ([2]; without serum): 3.36 ± 0.35 µM; IC50 ([3]; with serum (2%)): 6.28 ± 0.52 µM; IC50 ([3]; without serum): 2.45 ± 0.42 µM; τ, luminescence lifetime ([4]; air-equilibrated conditions): 690 ± 10 ns; φ, quantum yield of luminescence [4, 6]: 0.0254 ± 0.0009; τ, luminescence lifetime ([4]; deoxygenated conditions): 2.23 ± 0.01 µs; φ, quantum yield of luminescence ([4]; deoxygenated conditions): 0.0778 ± 0.0016

Question: Which IC50 ([1]; medium with serum (2 %)) does the source give for `Cc1ccnc(-c2cc(C(=O)[O-])ccn2)c1.[Ru+2].c1ccc(-c2ccnc3c2ccc2c(-c4ccccc4)ccnc23)cc1.c1ccc(-c2ccnc3c2ccc2c(-c4ccccc4)ccnc23)cc1` [[Ru(dip)2(CH3bpy-COO)]^+] here?
Answer: 13.9 ± 3 µM

Question: And the IC50 ([1]; medium without serum)?
Answer: 8.66 ± 1.47 µM

Question: What about the IC50 ([2]; with serum (2%)) of the same compound?
Answer: 18.1 ± 2.19 µM

Question: What about the IC50 ([2]; without serum) of the same compound?
Answer: 7.74 ± 1.26 µM

Question: What about the IC50 ([3]; with serum (2%)) of the same compound?
Answer: 16 ± 1.5 µM

Question: What about the IC50 ([3]; without serum) of the same compound?
Answer: 7.23 ± 0.53 µM

Question: What about the “relative ruthenium accumulation in cells” value (4T1 cells) of the same compound?
Answer: much smaller accumulation than the rest of the studied complexes

Question: What about the “τ, luminescence lifetime” value ([4]; air-equilibrated conditions) of the same compound?
Answer: 530 ± 10 ns

Question: What about the “φ, quantum yield of luminescence” value [4, 6] of the same compound?
Answer: 0.0226 ± 0.0012

Question: What about the “τ, luminescence lifetime” value ([4]; deoxygenated conditions) of the same compound?
Answer: 1.02 ± 0.01 µs

Question: What about the “φ, quantum yield of luminescence” value ([4]; deoxygenated conditions) of the same compound?
Answer: 0.0429 ± 0.0004

Question: With `[Ru+2].c1ccc(-c2ccccn2)nc1.c1ccc(-c2ccnc3c2ccc2c(-c4ccccc4)ccnc23)cc1.c1ccc(-c2ccnc3c2ccc2c(-c4ccccc4)ccnc23)cc1` [[Ru(dip)2(bpy)]^2+] as the compound, how does the IC50 ([1]; medium with serum (2 %)) read?
Answer: 13.6 ± 1.75 µM

Question: What about the IC50 ([1]; medium without serum) of the same compound?
Answer: 6.79 ± 1.09 µM

Question: And the IC50 ([2]; with serum (2%))?
Answer: 11.7 ± 1.6 µM

Question: What about the IC50 ([2]; without serum) of the same compound?
Answer: 4.7 ± 0.41 µM

Question: What about the IC50 ([3]; with serum (2%)) of the same compound?
Answer: 16.7 ± 1.88 µM

Question: And the IC50 ([3]; without serum)?
Answer: 4.15 ± 0.57 µM

Question: What about the “τ, luminescence lifetime” value ([4]; air-equilibrated conditions) of the same compound?
Answer: 760 ± 10 ns

Question: And the “φ, quantum yield of luminescence” value [4, 6]?
Answer: 0.0367 ± 0.0004

Question: And the “τ, luminescence lifetime” value ([4]; deoxygenated conditions)?
Answer: 2.51 ± 0.01 µs

Question: What about the “φ, quantum yield of luminescence” value ([4]; deoxygenated conditions) of the same compound?
Answer: 0.1245 ± 0.0004

Question: With `O=[N+]([O-])c1nccn1CCCc1ccnc(-c2ccccn2)c1.[Ru+2].c1ccc(-c2ccnc3c2ccc2c(-c4ccccc4)ccnc23)cc1.c1ccc(-c2ccnc3c2ccc2c(-c4ccccc4)ccnc23)cc1` [[Ru(dip)2(bpy-NitroIm)]^2+] as the compound, how does the IC50 ([1]; medium with serum (2 %)) read?
Answer: 18.8 ± 1.29 µM

Question: What about the IC50 ([1]; medium without serum) of the same compound?
Answer: 10.6 ± 1.05 µM

Question: What about the IC50 ([2]; with serum (2%)) of the same compound?
Answer: 10.4 ± 1.31 µM

Question: What about the IC50 ([2]; without serum) of the same compound?
Answer: 6.08 ± 0.7 µM

Question: What about the IC50 ([3]; with serum (2%)) of the same compound?
Answer: 7.4 ± 0.81 µM

Question: What about the IC50 ([3]; without serum) of the same compound?
Answer: 4.65 ± 0.62 µM

Question: What about the “τ, luminescence lifetime” value ([5]; air-equilibrated conditions) of the same compound?
Answer: 810 ± 10 ns

Question: What about the “φ, quantum yield of luminescence” value ([5]; air-equilibrated conditions) of the same compound?
Answer: 0.0103 ± 0.0004

Question: And the “τ, luminescence lifetime” value ([5]; deoxygenated conditions)?
Answer: 1.91 ± 0.01 µs

Question: What about the “φ, quantum yield of luminescence” value ([5]; deoxygenated conditions) of the same compound?
Answer: 0.0341 ± 0.0004

Question: With “[Ru(dip)2(1,3-dicyclohexyl-1-[4-carbonyl-(4′-methyl-2,2′-bipyridyl)]-urea)]Cl2 [[Ru(dip)2(CH3bpy-DCU)]^2+]” as the compound, how does the IC50 ([1]; medium with serum (2 %)) read?
Answer: 9.01 ± 1.33 µM

Question: What about the IC50 ([1]; medium without serum) of the same compound?
Answer: 4.71 ± 0.18 µM

Question: What about the IC50 ([2]; with serum (2%)) of the same compound?
Answer: 5.84 ± 0.24 µM

Question: What about the IC50 ([2]; without serum) of the same compound?
Answer: 2.28 ± 0.61 µM

Question: And the IC50 ([3]; with serum (2%))?
Answer: 4.62 ± 0.22 µM

Question: And the IC50 ([3]; without serum)?
Answer: 2.54 ± 1.12 µM

Question: What about the “relative ruthenium accumulation in cells” value (4T1 cells) of the same compound?
Answer: highest accumulation

Question: And the “τ, luminescence lifetime” value ([4]; air-equilibrated conditions)?
Answer: 460 ± 10 ns

Question: And the “φ, quantum yield of luminescence” value [4, 6]?
Answer: 0.0044 ± 0.0002

Question: What about the “τ, luminescence lifetime” value ([4]; deoxygenated conditions) of the same compound?
Answer: 1.85 ± 0.02 µs

Question: What about the “φ, quantum yield of luminescence” value ([4]; deoxygenated conditions) of the same compound?
Answer: 0.0049 ± 0.0002
